The values below come from patent US10556890B2, “Heteroaryl compounds and methods of use thereof” (Sunovion Pharmaceuticals Inc., priority 2012, dated 2020).

One assay has as its system Sprague Dawley rats. Put plainly: PCP-induced hyperactivity in rats. The following applies: vs. vehicle + PCP. The assay is classed as in vivo. Details: key: −: No inhibition of PCP hyperactivity; +: Significant inhibition of PCP hyperactivity (P value < 0.05). How it is done: (§1) Anti-psychotic like activity of the compounds was evaluated […] using the PCP hyperactivity (in rats) and Pre-Pulse Inhibition (PPI; in mice) models of schizophrenia.
Animals: PCP Hyperactivity: Male Sprague Dawley rats from Harlan (Indianapolis, Ind.) were used in these studies. Upon receipt, rats were assigned unique identification numbers and were group housed with 3 rats per cage in polycarbonate cages with micro-isolator filter tops. All rats were examined, handled, and weighed prior to initiation of the study to assure adequate health and suitability. The rats were maintained at 12/12 light/dark cycle with lights on at 7:00 am EST. The room temperature was maintained between 20 and 23° C. with a relative humidity maintained around 50%. Chow and water were provided ad libitum for the duration of the study. For each test, animals were randomly assigned across treatment groups.
The test chambers were Plexiglas rectangular chambers (24×45 cm) that fit inside two steel frames (9.5×18 inches) and were fitted with two-dimensional 4×8 beam grids to monitor horizontal and vertical locomotor activity (Hamilton Kinder, San Diego, Calif.). The analysis was configured to divide the open field of the chamber into a center and a periphery zone. Distance traveled was measured from horizontal beam breaks as the rat traveled whereas rearing activity was measured from vertical beam breaks.
Rats were administered with vehicle, test compound, or risperidone (0.5-1 mg/kg; i.p) and placed in the test chambers for 30 min measurement of baseline activity. Rats were then injected with either water or PCP (2.5 mg/kg; s.c) and placed back in the test chambers for a 60-minute session. At the end of each test session the chambers were thoroughly cleaned.

The subject of a further assay is C57Bl/6J mice. Briefly: Pre-pulse Inhibition (PPI) of startle in mice. The assay is classed as in vivo. Details: key: −: No change in PPI; +: Significant increase in PPI at one pre-pulse intensity (P value < 0.05); ++: Significant increase in PPI at two pre-pulse intensities (P value < 0.05); +++: Significant increase in PPI at three pre-pulse intensities (P value < 0.05). The note with it: 30 min prior to PPI test, vs. vehicle. On the procedure:
as §1
Animals—PPI: Male C57Bl/6J mice from Jackson Laboratories (Bar Harbor, Me.) were used in these studies. Upon receipt, mice were assigned unique identification numbers (tail marked) and were group housed with 4 mice per cage in OptiMICE ventilated cages. All animals remained housed in groups of four during the remainder of the study. All mice were acclimated to the colony room for at least one week prior to testing. During the period of acclimation, mice were examined on a regular basis, handled, and weighed to assure adequate health and suitability. Animals were maintained on a 12/12 light/dark cycle. The room temperature was maintained between 20 and 23° C. with a relative humidity maintained between 30% and 70%. Chow and water were provided ad libitum for the duration of the study. In each test, animals were randomly assigned across treatment groups.
The acoustic startle is an unconditioned reflex response to an external auditory stimulus. Prepulse inhibition of startle (PPI) refers to the reduction in the startle response caused by the presentation of a low-intensity auditory stimulus prior to the startle stimulus. The PPI paradigm is used for the study of schizophrenia and antipsychotic action due to the similarities between the results from human and rodent studies. PPI has been used as a tool for the assessment of deficiencies in sensory-motor gating observed in schizophrenia and to screen for potential antipsychotic drugs. Various psychotomimetic drugs such as PCP can disrupt PPI. In mice, antipsychotic drugs such as clozapine can reverse the disruption of PPI induced by PCP.
Mice were placed in the PPI chambers (Med Associates) for a 5 min session of white noise (70 dB) habituation. After the habituation period the test session was initiated. The session started with a habituation block of 6 presentations of the startle stimulus alone, followed by 10 PPI blocks, each of which consisted of 6 different types of trials. Trial types were: ‘null’ (no stimuli), ‘startle’ (120 dB), ‘startle plus prepulse’ (4, 8 and 12 dB over background noise, i.e., 74, 78 or 82 dB) and ‘prepulse’ (82 dB). Trial types were presented in a random order within each block. Each trial started with a 50 ms stimulus-free period during which baseline movements were recorded. This was followed by a subsequent 20 ms period during which the prepulse stimulus was presented and responses to the prepulse measured. After a further 100 ms period, the startle stimulus was presented for 40 ms and responses recorded for 100 ms from startle onset. Responses were sampled every ms. The inter-trial interval was variable with an average of 15 s (range from 10 to 20 s). In ‘startle’ trials the basic auditory startle response was measured. The basic startle response was calculated as the mean startle response of all ‘startle’ trials (i.e., excluding the first habituation block). In ‘startle plus prepulse’ trials the degree of inhibition of the normal startle was calculated and expressed as a percentage of the basic startle response.
Mice were treated with vehicle, haloperidol (1 mg/kg; i.p) or test compound 30 min prior to PPI test. The PPI enclosures were cleaned following each test.

The mark [1] stands for this setting: 3 mg/kg Compound + PCP (2.5 mg/kg s.c.).
Setting [2] is: 10 mg/kg Compound + PCP (2.5 mg/kg s.c.).
The mark [3] stands for this setting: 30 mg/kg Compound + PCP (2.5 mg/kg s.c.).

Consider `Cc1sc2ccccc2c1C1C=CN=CN1` (stereo not drawn) [Compound 3], for which the “Total Distance Traveled (cm), PCP-induced hyperactivity” value (“Total Distance Traveled (cm)” for short) is “−” in the assay on Sprague Dawley rats (setting [1]), “+” in the assay with Sprague Dawley rats (setting [2]) and “+” in the assay with Sprague Dawley rats (setting [3]). Also, the “Effect on Pre-pulse Inhibition (PPI)” value in the assay with C57Bl/6J mice (3 mg/kg) is “+”; with C57Bl/6J mice (10 mg/kg), “+”; in the assay on C57Bl/6J mice (30 mg/kg) it was “+++”.

Consider `Cl.Fc1sc2ccccc2c1C1C=CN=CN1` (stereo not drawn) [Compound 15], for which the “Total Distance Traveled (cm)” value with Sprague Dawley rats (setting [1]), in the assay with Sprague Dawley rats (setting [2]) and in the assay on Sprague Dawley rats (setting [3]) was “−” in each case. Also, the “Effect on Pre-pulse Inhibition (PPI)” value in the assay with C57Bl/6J mice (3 mg/kg) is “−”; in the assay with C57Bl/6J mice (10 mg/kg), “+”; in the assay with C57Bl/6J mice (30 mg/kg) it was “++”.

As to `Cc1c(C2C=CN=CN2)sc2ccccc12.Cl` (stereo not drawn) [Compound 20], the “Total Distance Traveled (cm)” value was “+” in the assay with Sprague Dawley rats (setting [1]), “−” in the assay on Sprague Dawley rats (setting [2]) and “+” in the assay with Sprague Dawley rats (setting [3]). Also, the “Effect on Pre-pulse Inhibition (PPI)” value with C57Bl/6J mice (3 mg/kg), in the assay on C57Bl/6J mice (10 mg/kg) and in the assay with C57Bl/6J mice (30 mg/kg) was “−” in each case.

For `Cc1cc(C2C=CN=CN2)cs1.Cl` (stereo not drawn) [Compound 21], the “Total Distance Traveled (cm)” value with Sprague Dawley rats (setting [2]), in the assay with Sprague Dawley rats (setting [3]) and with Sprague Dawley rats (100 mg/kg Compound + PCP (2.5 mg/kg s.c.)) was “−” each time. In addition, the “Effect on Pre-pulse Inhibition (PPI)” value in the assay on C57Bl/6J mice (3 mg/kg), with C57Bl/6J mice (10 mg/kg) and in the assay with C57Bl/6J mice (30 mg/kg) was “−” throughout.

For the compound `Fc1ccc2c(c1)N=CNC2c1c(F)sc2ccccc12` (stereo not drawn) [Compound 239], the “Total Distance Traveled (cm)” value with Sprague Dawley rats (setting [1]), in the assay with Sprague Dawley rats (setting [2]) and with Sprague Dawley rats (setting [3]) was “+ (increase)” each time. Moreover, the results for the “Effect on Pre-pulse Inhibition (PPI)” value with C57Bl/6J mice (3 mg/kg), in the assay with C57Bl/6J mice (10 mg/kg) and in the assay on C57Bl/6J mice (30 mg/kg) were “−”, “−” and “+++”, respectively.
